Tests used:
Test in all cases: relative viability (nuclei count vs DMSO), 5 days (fraction); higher = more cells survive
[1] = tested on: UMC-11
In short: (§1)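 Relative viability was taken as the ratio of nuclei in treated wells to nuclei in vehicle wells. Lung cancer cell lines in 1536-well plates received compounds by pin tool one day after seeding, either one drug alone or a fixed anchor-drug dose plus five library-drug doses (not always all listed) in √10 steps. Nuclei were counted on 4× images after 5 days of treatment, and values are medians of duplicate plates.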

[2] = tested on: NCI-H2405
In short: as §1

[3] = tested on: LCLC-97TM1
In short: as §1

[4] = tested on: NCI-H1563
In short: as §1

[5] = tested on: NCI-H1395
In short: as §1

[6] = tested on: EMC-BAC-2
In short: as §1

[7] = tested on: NCI-H1651
In short: as §1

[8] = tested on: LCLC-103H
In short: as §1

[9] = tested on: NCI-H2085
In short: as §1

[10] = tested on: H3255
In short: as §1

[11] = tested on: NCI-H1793
In short: as §1

[12] = tested on: NCI-H2087
In short: as §1

[13] = tested on: NCI-H1355
In short: as §1

[14] = tested on: HCC-827
In short: as §1

[15] = tested on: NCI-H1944
In short: as §1

[16] = tested on: NCI-H520
In short: as §1

[17] = tested on: NCI-H322M
In short: as §1

[18] = tested on: EPLC-272H
In short: as §1

[19] = tested on: NCI-H650
In short: as §1

[20] = tested on: ChaGo-K-1
In short: as §1

[21] = tested on: SK-MES-1
In short: as §1

[22] = tested on: NCI-H2023
In short: as §1

[23] = tested on: HCC-44
In short: as §1

Oc1nc(-c2ccc(C(F)(F)F)cc2)nc2c1CSCC2 [XAV939] + CCNC(=O)c1noc(-c2cc(C(C)C)c(O)cc2O)c1-c1ccc(CN2CCOCC2)cc1 [Luminespib] (partner 0.01 µM)
relative viability ([1]; first compound 0.08 µM): 1.04
relative viability ([1]; first compound 0.253 µM): 0.973
relative viability ([1]; first compound 0.8 µM): 1.02
relative viability ([1]; first compound 2.53 µM): 0.886
relative viability ([2]; first compound 0.08 µM): 0.657
relative viability ([2]; first compound 0.253 µM): 0.673
relative viability ([2]; first compound 0.8 µM): 0.599
relative viability ([2]; first compound 2.53 µM): 0.588
relative viability ([3]; first compound 0.08 µM): 0.977
relative viability ([3]; first compound 0.253 µM): 0.763
relative viability ([3]; first compound 0.8 µM): 0.835
relative viability ([3]; first compound 2.53 µM): 0.765
relative viability ([4]; first compound 0.08 µM): 0.617
relative viability ([4]; first compound 0.253 µM): 0.481
relative viability ([4]; first compound 0.8 µM): 0.505
relative viability ([4]; first compound 2.53 µM): 0.489
relative viability ([5]; first compound 0.08 µM): 0.614
relative viability ([5]; first compound 0.253 µM): 0.725
relative viability ([5]; first compound 0.8 µM): 0.721
relative viability ([5]; first compound 2.53 µM): 0.662
relative viability ([6]; first compound 0.08 µM): 1.37
relative viability ([6]; first compound 0.253 µM): 1.09
relative viability ([6]; first compound 0.8 µM): 0.971
relative viability ([6]; first compound 2.53 µM): 0.771
relative viability ([7]; first compound 0.08 µM): 0.988
relative viability ([7]; first compound 0.253 µM): 0.699
relative viability ([7]; first compound 0.8 µM): 0.896
relative viability ([7]; first compound 2.53 µM): 0.725
relative viability ([8]; first compound 0.08 µM): 1.09
relative viability ([8]; first compound 0.253 µM): 0.934
relative viability ([8]; first compound 0.8 µM): 0.971
relative viability ([8]; first compound 2.53 µM): 0.799
relative viability ([9]; first compound 0.08 µM): 0.446
relative viability ([9]; first compound 0.253 µM): 0.422
relative viability ([9]; first compound 0.8 µM): 0.431
relative viability ([9]; first compound 2.53 µM): 0.406
relative viability ([10]; first compound 0.08 µM): 1.09
relative viability ([10]; first compound 0.253 µM): 0.879
relative viability ([10]; first compound 0.8 µM): 0.804
relative viability ([10]; first compound 2.53 µM): 0.907
relative viability ([11]; first compound 0.08 µM): 0.223
relative viability ([11]; first compound 0.253 µM): 0.186
relative viability ([11]; first compound 0.8 µM): 0.176
relative viability ([11]; first compound 2.53 µM): 0.185
relative viability ([12]; first compound 0.08 µM): 0.165
relative viability ([12]; first compound 0.253 µM): 0.128
relative viability ([12]; first compound 0.8 µM): 0.152
relative viability ([12]; first compound 2.53 µM): 0.142
relative viability ([13]; first compound 0.08 µM): 0.814
relative viability ([13]; first compound 0.253 µM): 0.787
relative viability ([13]; first compound 0.8 µM): 0.632
relative viability ([13]; first compound 2.53 µM): 0.47
relative viability ([14]; first compound 0.08 µM): 0.743
relative viability ([14]; first compound 0.253 µM): 0.739
relative viability ([14]; first compound 0.8 µM): 0.587
relative viability ([14]; first compound 2.53 µM): 0.396
relative viability ([15]; first compound 0.08 µM): 0.843
relative viability ([15]; first compound 0.253 µM): 0.676
relative viability ([15]; first compound 0.8 µM): 0.788
relative viability ([15]; first compound 2.53 µM): 0.595
relative viability ([16]; first compound 0.08 µM): 0.233
relative viability ([16]; first compound 0.253 µM): 0.243
relative viability ([16]; first compound 0.8 µM): 0.201
relative viability ([16]; first compound 2.53 µM): 0.204
relative viability ([17]; first compound 0.08 µM): 1.06
relative viability ([17]; first compound 0.253 µM): 0.808
relative viability ([17]; first compound 0.8 µM): 0.86
relative viability ([17]; first compound 2.53 µM): 0.552
relative viability ([18]; first compound 0.08 µM): 0.954
relative viability ([18]; first compound 0.253 µM): 0.361
relative viability ([18]; first compound 0.8 µM): 0.317
relative viability ([18]; first compound 2.53 µM): 0.184
relative viability ([19]; first compound 0.08 µM): 0.858
relative viability ([19]; first compound 0.253 µM): 0.75
relative viability ([19]; first compound 0.8 µM): 0.93
relative viability ([19]; first compound 2.53 µM): 0.745
relative viability ([20]; first compound 0.08 µM): 0.586
relative viability ([20]; first compound 0.253 µM): 0.384
relative viability ([20]; first compound 0.8 µM): 0.508
relative viability ([20]; first compound 2.53 µM): 0.523
relative viability ([21]; first compound 0.08 µM): 0.915
relative viability ([21]; first compound 0.253 µM): 0.726
relative viability ([21]; first compound 0.8 µM): 0.654
relative viability ([21]; first compound 2.53 µM): 0.48
relative viability ([22]; first compound 0.08 µM): 0.888
relative viability ([22]; first compound 0.253 µM): 0.604
relative viability ([22]; first compound 0.8 µM): 0.589
relative viability ([22]; first compound 2.53 µM): 0.454
relative viability ([23]; first compound 0.08 µM): 1.61
relative viability ([23]; first compound 0.253 µM): 0.981
relative viability ([23]; first compound 0.8 µM): 1.12
relative viability ([23]; first compound 2.53 µM): 0.974

— the supplement of paper PMC10307832
